These results are taken from patent EP2077092A2, “System and Methods for Screening or Analyzing Targets” (Taipei Veterans General Hospital, priority 2007, dated 2009).

One data set deals with c-FLIP. Nature of the data set: c-FLIP mRNA expression in fluoxetine-treated NSCs (real-time RT-PCR). Type of data set: cell-based, Sprague-Dawley rats. The following applies: FL-treated NSCs. The protocol:
(§1) All animal used were treated in accordance with the Animal Care and Use Committee guideline at Taipei Veterans General Hospital. Adult Sprague-Dawley rats (8 weeks old, 250 g) were anesthetized with intraperitoneal phenobarbital (Sigma, USA). The location of their brains was mapped: then, the brain was surgically separated from the hippocampus region with the procedure. Tissues from the hippocampus of the adult SD rats were dissociated and incubated in Hank's balanced salt solution (HB'SS) containing collagenase (78 units/ml) and hyaluronidase (38 units/ml) for 10 mins at 37°C. The tissues were then mechanically dissected and placed in a trypsin solution (1.33 mg/ml) at 37°C for another 10 mins. Dissociated cells were then centrifuged at 150g for 5 mins. […] Viable cells were counted by trypan blue exclusion and plated as 5000 cells/200 µL per well in 96-well plates (Corning, Acton, MA) with no substrate pretreatment.
For real-time RT-PCR, the total RNA was extracted using the RNAeasy kit (Qiagen, Valencia, CA, USA) as previously described C.L. Kao et al., Mod Pathol 18 (2005) 769-778.[15]. […] The quantification in the unknown samples was performed by the LightCycler Relative Quantification Software version 3.3 (Roche Molecular Systems, Alameda, CA, USA). […]
For orientation: In qPCR the cycle at which signal appears reflects the starting amount.

The subject of a further data set is c-FLIP promoter. Briefly: c-FLIP promoter luciferase assay in fluoxetine-treated NSCs. Type of data set: cell-based, Sprague-Dawley rats. The following applies: fluoxetine 20 µm; full-length and deletion mutants of the c-FLIP promoter in NSCs. How it is done:
(§2) All animal used were treated in accordance with the Animal Care and Use Committee guideline at Taipei Veterans General Hospital. Adult Sprague-Dawley rats (8 weeks old, 250 g) were anesthetized with intraperitoneal phenobarbital (Sigma, USA). The location of their brains was mapped: then, the brain was surgically separated from the hippocampus region with the procedure. Tissues from the hippocampus of the adult SD rats were dissociated and incubated in Hank's balanced salt solution (HB'SS) containing collagenase (78 units/ml) and hyaluronidase (38 units/ml) for 10 mins at 37°C. The tissues were then mechanically dissected and placed in a trypsin solution (1.33 mg/ml) at 37°C for another 10 mins. Dissociated cells were then centrifuged at 150g for 5 mins. The enzyme solution was then removed and replaced with serum-free culture media composed of Dulbecco modified Eagle medium (DMEM) and F-12 nutrient (1:1) including insulin (25 µg/mL), transferrin (100 µg/mL), progesterone (20 nM), putrescine (60µM), sodium selenite (30 nM), and human […] epidermal growth factor (EGF) 20 ng/mL and fibroblast growth factor-basic (bFGF) 20 ng/mL (R&D Systems, Minneapolis, MN). Viable cells were counted by trypan blue exclusion and plated as 5000 cells/200 µL per well in 96-well plates (Corning, Acton, MA) with no substrate pretreatment. […]

Another data set has as its system c-FLIPL. Nature of the data set: c-FLIP protein expression in fluoxetine-treated NSCs (Western analysis). Type of data set: cell-based, Sprague-Dawley rats. The following applies: FL-treated NSCs. How it is done:
as §1, with “pretreatment. […]” for “pretreatment.”
An avidin-biotin complex method was used for the immunohistochemical staining in the differentiated NSCs. […] Immunoreactive signals were detected with a mixture of biotinylated rabbit antimouse IgG and Fluoesave (Calbiochem, La Jolla, CA, USA) under immunofluorescent microscope (Olympus FV300).

Data set [1] concerns inactive caspases 8 (pro-form). Nature of the data set: Protein level of inactive caspase 8 (pro-form) in fluoxetine-treated NSCs. It is filed as cell-based, Sprague-Dawley rats. The following applies: different concentrations of fluoxetine treatment. The protocol: as §2
Data set [2] concerns inactive caspases 3 (pro-form). Nature of the data set: Protein level of inactive caspase 3 (pro-form) in fluoxetine-treated NSCs. The following applies: different concentrations of fluoxetine treatment. It is filed as cell-based, Sprague-Dawley rats. How it is done: as §2
Details of data set [3]: species or system Sprague-Dawley rats. The following applies: in vivo, iv, 30 mg/kg, 360 min. The protocol: Adult, male Sprague-Dawley rats (280-350 g) were obtained from the Laboratory Animal Center at National Yang-Ming University (Taipei, Taiwan). These animals were specifically pathogen-free and were allowed to acclimate to their environmentally controlled quarters (24 ± 1°C and 12:12 h light-dark cycle) for at least 5 days before the experiments began. At the start of experiments, the rats were anesthetized with urethane 0.8 g/ml and chloralose 0.08 g/ml ([…], i.p.). Throughout the experimental period, anesthesia was maintained by administering one quarter of the initial dose at each hour. The experimental animals were kept warm with a heating pad throughout the experiments.
The HPLC system consisted of a chromatographic pump (BAS PM-80, Bioanalytical System, West Lafayette, IN, USA), an on-line injector (CMA/160, Stockholm, Sweden) equipped with a 20 µl sample loop and a UV detector (Soma S-3702, Tokyo, Japan). […] Output signal from the HPLC-UV was recorded using an EZChrom chromatographic data system (Scientific Software, San Ramon, CA, USA). […]
For in vivo recovery, normal saline solution containing cefoperazone (50 or 100 µg/ml) were pumped through the probes at a constant flow rate (2 µl/min) using the infusion pump (CMA/100). After a stabilization period of 2 h, the inlet (Cin) and outlet (Cout) concentrations of cefoperazone were determined by HPLC. […]

The next data set deals with caspase 3. Nature of the data set: Caspase 3 activity ELISA in LPS-treated NSCs. Type of data set: cell-based, Sprague-Dawley (SD) rats. The following applies: siRNA or U0126 (40 µM) added to LPS- and IM-treated NSCs.
Data set [4] concerns NSCs. Nature of the data set: Immunofluorescent assay of serotonin (5-HT)-positive cells in differentiating NSCs. It is filed as cell-based, Sprague-Dawley (SD) rats. The following applies: siRNA or U0126 added, Day 7 culture of IM-treated NSCs.
For a further data set, the system named is Bcl-2 protein. Nature of the data set: Bcl-2 protein expression in NSCs by western blot and immunohistochemistry. The following applies: siRNA or MAPK inhibitor added to IM-treated NSCs. Type of data set: cell-based, Sprague-Dawley (SD) rats. In general terms: Immunoblotting shows a protein as a band on a membrane.
For data set [5], the system named is LPS-treated NSCs. Nature of the data set: TUNEL assay of LPS-induced apoptosis in NSCs. It is filed as cell-based, Sprague-Dawley (SD) rats. The following applies: siRNA or U0126 (40 µM) added to LPS- and IM-treated NSCs.
The test system of another data set is IL-6. Nature of the data set: IL-6 ELISA in LPS-treated NSCs. Type of data set: cell-based, Sprague-Dawley (SD) rats. The following applies: siRNA or U0126 (40 µM) added to LPS- and IM-treated NSCs.
For a further data set, the system named is caspase 8. Briefly: Caspase 8 activity ELISA in LPS-treated NSCs. It is filed as cell-based, Sprague-Dawley (SD) rats. The following applies: siRNA or U0126 (40 µM) added to LPS- and IM-treated NSCs.
The next data set relates to IL-1β. Briefly: IL-1β ELISA in LPS-treated NSCs. It is filed as cell-based, Sprague-Dawley (SD) rats. The following applies: siRNA or U0126 (40 µM) added to LPS- and IM-treated NSCs. For orientation: ELISA stands for enzyme-linked immunosorbent assay.
In a further data set the test system is TNF-α. Nature of the data set: TNF-α ELISA in LPS-treated NSCs. It is filed as cell-based, Sprague-Dawley (SD) rats. The following applies: siRNA or U0126 (40 µM) added to LPS- and IM-treated NSCs.
Data set [6] concerns NSCs. Nature of the data set: Immunofluorescent assay of MAP-2-positive cells in differentiating NSCs. It is filed as cell-based, Sprague-Dawley (SD) rats. The following applies: siRNA or U0126 added, Day 7 culture of IM-treated NSCs.
For data set [7], the system named is NSCs. Nature of the data set: Microdialysis with HPLC-ECD of 5-HT in the culture medium of IM-treated NSCs. It is filed as cell-based, Sprague-Dawley (SD) rats. The following applies: siRNA or U0126 added, Day 7 and Day 14, p<0.05.
Data set [8] deals with LPS-treated NSCs. Briefly: MTT cell survival of LPS-treated NSCs. It is filed as cell-based, Sprague-Dawley (SD) rats. The following applies: siRNA or U0126 added to LPS- and IM-treated NSCs.

For the compound `CNCCC(Oc1ccc(C(F)(F)F)cc1)c1ccccc1` (centres unmarked) [FL, fluoxetine], in the data set with c-FLIP, the “mRNA expression of c-FLIP” value is reported as “up-regulated”. Moreover, the “activation of c-FLIP promoter (luciferase assay)” value with c-FLIP promoter is recorded as “c-FLIP promoter region from bp -414 to -133 was necessary for its activation by FL”. For the same compound, the “protein expression of c-FLIP” value in the data set on c-FLIPL is “up-regulated”. The “protein levels of inactive caspases 8 (pro-form)” value in [1] is given as “not decreased”. In data set [2], the “protein levels of inactive caspases 3 (pro-form)” value is on record as “not decreased”.

Turning to `CCN1CCN(C(=O)N[C@@H](C(=O)N[C@@H]2C(=O)N3C(C(=O)O)=C(CSc4nnnn4C)CS[C@H]23)c2ccc(O)cc2)C(=O)C1=O` [cefoperazone], the “cefoperazone in microdialysate from rat biliary duct” value in data set [3] was found to be 27.8 µg/mL.

With `N#CC(=C(/N)Sc1ccccc1N)/C(C#N)=C(\N)Sc1ccccc1N` [U0126], the “apoptotic activities (caspase 3) in LPS- and IM-treated NSCs” value in the data set with caspase 3 is “significantly enhanced”. Moreover, in the data set on NSCs [4], the “percentages of serotonin (5-HT)-positive cells in IM-treated NSCs” value is given as “significantly decrease”. Also, the “Bcl-2 expression induced by IM in NSCs” value in the data set on Bcl-2 protein is on record as “effectively blocked”. Besides, in the data set with LPS-treated NSCs [5], the “apoptotic activities (TUNEL) in LPS- and IM-treated NSCs” value is on record as “significantly enhanced”. The “levels of IL-6 in LPS-treated NSCs with IM” value in the data set on IL-6 is reported as “significantly increased”. Further, the “apoptotic activities (caspase 8) in LPS- and IM-treated NSCs” value in the data set with caspase 8 is reported as “significantly enhanced”. Besides, the “levels of IL-1β in LPS-treated NSCs with IM” value with IL-1β is “significantly increased”. Also, the “levels of TNF-α in LPS-treated NSCs with IM” value in the data set with TNF-α was “significantly increased”. The “percentages of MAP-2-positive cells in IM-treated NSCs” value in the data set on NSCs [6] is “significantly decrease”. For the same compound, the “production of 5-HT of the IM-treated NSCs” value in the data set on NSCs [7] is on record as “significantly diminished”. The “cell viability in the LPS-treated NSCs with IM” value in the data set with LPS-treated NSCs [8] is “dramatically decreased”.
